# In patent publication US6486326B2, “iso-CBI and iso-CI analogs of CC-1065 duocarmycins” (The Scripps Research Institute, priority 1997, dated 2002):
# Test system: w794 DNA (SV40 DNA segment, 144 bp)
# Assay: DNA alkylation selectivity and efficiency, thermally-induced strand cleavage of w794 DNA
# Assay type: biochemical
# Experimental: FIG. 5 illustrates thermally-induced strand cleavage of w794 DNA (SV40 DNA segment, 144 bp, nucleotide nos. 138-5238); DNA-agent incubation for 24 hours at 25° C., removal of unbound agent and 30 minutes of thermolysis (100° C.), followed by denaturing 8% PAGE and autoradiography, lane 1, control DNA; lanes 2-5, Sanger G, C, A, and T sequencing reactions; lanes 6-7 (−)-iso-CBI-TMI (1×10^−3 and 1×10^−4 M); lanes 8-9, (+)-CBI-TMI (1×10^−5 and 1×10^−4 M); lanes 10-11, (+)-duocarmycin SA (1×10^−5 and 1×10^−6).
# FIG. 7 illustrates thermally-induced strand cleavage of w794 DNA (SV40 DNA segment, 144 bp, nucleotide nos. 138-5238); DNA-agent incubation for 24 h at 25° C., removal of unbound agent and 30 min of thermolysis (100° C.), followed by denaturing 8% PAGE and autoradiography; lane 1, control DNA; lanes 2-5, Sanger G, C, A, and T sequencing reactions; lanes 6-8 (+)-duocarmycin SA (1×10^−4 to 1×10^−6 M); lanes9-11, seco-iso-CI-TMI (1×10^−3 to 1×10^−5 M).
# DNA Alkylation Selectivity and Efficiency: The DNA alkylation properties of the agents were examined within w794 and w836 duplex DNA for which comparative results are available for related agents. (Boger, D. L., et al., J. Am. Chem. Soc. 1994, 116, 11335; Boger, D. L., et al., J. Am. Chem. Soc. 1994, 116, 6461; and Boger, D. L., et al., J. Am. Chem. Soc. 1995, 117, 11647) The alkylation site identification and the assessment of the relative selectivity among the available sites were obtained by thermally-induced strand cleavage of the singly 5′ end-labeled duplex DNA after exposure to the agents. Following treatment of the end-labeled duplex DNA with a range of agent concentrations and temperatures in the dark, the unbound agent was removed by EtOH precipitation of the DNA Redissolution of the DNA in aqueous buffer, thermolysis (100° C., 30 min) to induce strand cleavage at the sites of DNA alkylation, denaturing high-resolution polyacrylamide gel electrophoresis (PAGE) adjacent to Sanger dideoxynucleotide sequencing standards, and autoradiography led to identification of the DNA cleavage and alkylation sites. The full details of this procedure have been disclosed elsewhere. (Boger, D. L., et al., Tetrahedron 1991, 47, 2661.)
# DNA Alkylation Studies: Selectivity and Efficiency: Eppendorf tubes containing singly ^32p 5′-end-labeled double-stranded DNA (9 μL) (Boger, D. L., et al., Tetrahedron 1991, 47, 2661.) in TE buffer (10 mM Tris, 1 mM EDTA, pH 7.5) were treated with the agents in DMSO (1 μL, at the specified concentrations). The solutions were mixed by vortexing and brief centrifugation and subsequently incubated at 4° C., 25° C. or 37° C. for 24-72 h. […]
smiles,measurement,setting,value
"COc1cc2cc(C(=O)N3CC4CC45C(=O)c4ccccc4C=C35)[nH]c2c(OC)c1OC (single isomer, unassigned; (-)) [(−)-iso-CBI-TMI, 2-[(5,6,7-Trimethoxyindol-2-yl)carbonyl]-1,2,9,9a-tetrahydrocyclopropa[c]benzo[f]indol-8-one]",DNA alkylation sequence selectivity compared with (+)-duocarmycin SA,,same sequence selectivity
same,"DNA alkylation efficiency, less efficient than (+)-CBI-TMI and (+)-duocarmycin SA","24 h, 25° C.",50-100 ×
